Publication PMC6711177, “Sorafenib-loaded hydroxyethyl starch-TG100-115 micelles for the treatment of liver cancer based on synergistic treatment” (Drug Delivery, 2019)

Columns and labels:
[1] = tested on: Hep-3B-xenografted nude mouse model; assay: In vivo anti-tumor activity and safety in Hep-3B-xenografted nude mouse model; conditions: Hep-3B nude mouse, TG100-115 30 mg/kg and/or sorafenib 20 mg/kg; for IRT (tumor inhibition rate): versus normal saline
Protocol: The in vivo anti-tumor activity and safety of the prepared micelles was investigated by using Hep-3B-xenografted nude mouse model. The mice were randomly divided into six groups (n = 6) when the tumor volumes reached around 150 mm^3. The tumor-bearing mice were treated with non-targeted micelles solution, targeted micelle solution, TG100-115 solution, sorafenib solution, mixed sorafenib/TG100-115 solution and normal saline. […] The mice were sacrificed on day 28. Thereafter, the tumors were totally excised and precisely weighed. The tumor inhibitory rates were calculated using the formula: Tumor inhibition rate (%) = (Vblank −Vsample)/Vblank × 100%, Vblank, and Vsample represent the tumor volumes in the blank and test, reference group respectively.

in vivo = assay: in vivo; parameters: species or system Sprague-Dawley rats; conditions: rat, iv
Protocol: Sprague-Dawley rats were randomly divided into three groups and each group contains 6 rats. The prepared micelles solution was injected through femoral vein and the dose was 20 mg/kg (sorafenib) and 30 mg/kg (TG100-115). Free sorafenib and TG100-115 solutions were used as reference and the dose is same as the micelles group. After the end of administration, appropriate blood was obtained from the retro-orbital sinus at preselected time intervals (5, 10, 15, 30, 60 min, 2, 4, 6, 8, 12, 24, 48 and 72 h). Then, the blood was centrifuged at 3500 rpm for 10 min to acquire final plasma.
The plasma concentration of sorafenib and TG100-115 was measured using a validated HPLC-MS/MS method. The specific conditions are as follows: poroshell 120 poroshell-C18 column (50 mm × 4.6 mm, 2.7 μm, Agilent) was chosen as an analytical column, and the column temperature was 40 °C. The mobile phase comprised acetonitrile and 10 mmol/L ammonium acetate containing 0.1% formic acid, and the flow rate was 0.7 mL/min. Imatinib and naproxen were chosen as internal standard (IS) to improve the accuracy of the measurement. The ion ionization of sorafenib and imatinib was positive ion ionization, while TG100-115 and naproxen were negative ion ionization. The specific MS parameters of analytes were shown in S1 (Supplemental 1).
Plasma samples are processed according to the standard operating practices described below. Briefly, add 150.0 μL of plasma sample and 20.0 μL of the IS solution in a 2.0 mL EP tube. Then, the solution was vortexed for 1.0 min and added 300 μL of ice acetonitrile to precipitate protein. After vortexing for 1.0 min, the solution was centrifuged at 15000 rpm for 10 min. After that, 150 μL of supernatant was collected for quantitative analysis.

[2] = parameters: method as in Hsu et al., 2018; Wang et al., 2018; conditions: checkpoint inhibitor alone only 20%, ref Hsu et al., 2018, Wang et al.; cited from earlier work
[3] = twice a week for 4 weeks, day 28

| AUC(0-inf) (in vivo; Sprague-Dawley, 20 mg/kg) [ng·h/mL] | AUC(0-t) (in vivo; Sprague-Dawley, 20 mg/kg) [ng·h/mL] | Cmax (in vivo; Sprague-Dawley, 20 mg/kg) [ng/mL] | Tmax (in vivo; Sprague-Dawley, 20 mg/kg) [h] | clearance (in vivo; Sprague-Dawley, 20 mg/kg) [mL/min/kg] | half-life (in vivo; Sprague-Dawley, 20 mg/kg) [h] | SMILES | Body weight Final [1, 3] [g] | Tumor weight [1, 3] [g] | IRT (tumor inhibition rate) [1, 3] [%] | Body weight Initial ([1]; before treatment) [g] | CLz of TG100-115 (in vivo; 30 mg/kg) [mL/min/kg] | efficiency of checkpoint inhibitor in the treatment of immune-tolerant mice when combined with TG100-115 [2] [%] |
| --- | --- | --- | --- | --- | --- | --- | --- | --- | --- | --- | --- | --- |
| 78.6 ± 20.6 | 74.5 ± 18.7 | 17.3 ± 3.2 | 0.167 ± 0.073 | 423 | 8.8 ± 1.4 | CNC(=O)c1cc(Oc2ccc(NC(=O)Nc3ccc(Cl)c(C(F)(F)F)c3)cc2)ccn1 [Sorafenib] | 34.2 | 2.48 ± 0.36 | 46.09 | 23.6 |  |  |
|  |  |  |  |  |  | Nc1nc(N)c2nc(-c3cccc(O)c3)c(-c3cccc(O)c3)nc2n1 [TG100-115] |  | 2.72 ± 0.31 | 40.87 |  | 545 ± 91.7 | 80 |
